Biological target: p300 histone acetyltransferase (Homo sapiens, UniProt Q09472)
Experiment: in vitro histone acetyltransferase assay with purified human p300
Format: biochemical

Chain of p300 histone acetyltransferase (Q09472 2-2414): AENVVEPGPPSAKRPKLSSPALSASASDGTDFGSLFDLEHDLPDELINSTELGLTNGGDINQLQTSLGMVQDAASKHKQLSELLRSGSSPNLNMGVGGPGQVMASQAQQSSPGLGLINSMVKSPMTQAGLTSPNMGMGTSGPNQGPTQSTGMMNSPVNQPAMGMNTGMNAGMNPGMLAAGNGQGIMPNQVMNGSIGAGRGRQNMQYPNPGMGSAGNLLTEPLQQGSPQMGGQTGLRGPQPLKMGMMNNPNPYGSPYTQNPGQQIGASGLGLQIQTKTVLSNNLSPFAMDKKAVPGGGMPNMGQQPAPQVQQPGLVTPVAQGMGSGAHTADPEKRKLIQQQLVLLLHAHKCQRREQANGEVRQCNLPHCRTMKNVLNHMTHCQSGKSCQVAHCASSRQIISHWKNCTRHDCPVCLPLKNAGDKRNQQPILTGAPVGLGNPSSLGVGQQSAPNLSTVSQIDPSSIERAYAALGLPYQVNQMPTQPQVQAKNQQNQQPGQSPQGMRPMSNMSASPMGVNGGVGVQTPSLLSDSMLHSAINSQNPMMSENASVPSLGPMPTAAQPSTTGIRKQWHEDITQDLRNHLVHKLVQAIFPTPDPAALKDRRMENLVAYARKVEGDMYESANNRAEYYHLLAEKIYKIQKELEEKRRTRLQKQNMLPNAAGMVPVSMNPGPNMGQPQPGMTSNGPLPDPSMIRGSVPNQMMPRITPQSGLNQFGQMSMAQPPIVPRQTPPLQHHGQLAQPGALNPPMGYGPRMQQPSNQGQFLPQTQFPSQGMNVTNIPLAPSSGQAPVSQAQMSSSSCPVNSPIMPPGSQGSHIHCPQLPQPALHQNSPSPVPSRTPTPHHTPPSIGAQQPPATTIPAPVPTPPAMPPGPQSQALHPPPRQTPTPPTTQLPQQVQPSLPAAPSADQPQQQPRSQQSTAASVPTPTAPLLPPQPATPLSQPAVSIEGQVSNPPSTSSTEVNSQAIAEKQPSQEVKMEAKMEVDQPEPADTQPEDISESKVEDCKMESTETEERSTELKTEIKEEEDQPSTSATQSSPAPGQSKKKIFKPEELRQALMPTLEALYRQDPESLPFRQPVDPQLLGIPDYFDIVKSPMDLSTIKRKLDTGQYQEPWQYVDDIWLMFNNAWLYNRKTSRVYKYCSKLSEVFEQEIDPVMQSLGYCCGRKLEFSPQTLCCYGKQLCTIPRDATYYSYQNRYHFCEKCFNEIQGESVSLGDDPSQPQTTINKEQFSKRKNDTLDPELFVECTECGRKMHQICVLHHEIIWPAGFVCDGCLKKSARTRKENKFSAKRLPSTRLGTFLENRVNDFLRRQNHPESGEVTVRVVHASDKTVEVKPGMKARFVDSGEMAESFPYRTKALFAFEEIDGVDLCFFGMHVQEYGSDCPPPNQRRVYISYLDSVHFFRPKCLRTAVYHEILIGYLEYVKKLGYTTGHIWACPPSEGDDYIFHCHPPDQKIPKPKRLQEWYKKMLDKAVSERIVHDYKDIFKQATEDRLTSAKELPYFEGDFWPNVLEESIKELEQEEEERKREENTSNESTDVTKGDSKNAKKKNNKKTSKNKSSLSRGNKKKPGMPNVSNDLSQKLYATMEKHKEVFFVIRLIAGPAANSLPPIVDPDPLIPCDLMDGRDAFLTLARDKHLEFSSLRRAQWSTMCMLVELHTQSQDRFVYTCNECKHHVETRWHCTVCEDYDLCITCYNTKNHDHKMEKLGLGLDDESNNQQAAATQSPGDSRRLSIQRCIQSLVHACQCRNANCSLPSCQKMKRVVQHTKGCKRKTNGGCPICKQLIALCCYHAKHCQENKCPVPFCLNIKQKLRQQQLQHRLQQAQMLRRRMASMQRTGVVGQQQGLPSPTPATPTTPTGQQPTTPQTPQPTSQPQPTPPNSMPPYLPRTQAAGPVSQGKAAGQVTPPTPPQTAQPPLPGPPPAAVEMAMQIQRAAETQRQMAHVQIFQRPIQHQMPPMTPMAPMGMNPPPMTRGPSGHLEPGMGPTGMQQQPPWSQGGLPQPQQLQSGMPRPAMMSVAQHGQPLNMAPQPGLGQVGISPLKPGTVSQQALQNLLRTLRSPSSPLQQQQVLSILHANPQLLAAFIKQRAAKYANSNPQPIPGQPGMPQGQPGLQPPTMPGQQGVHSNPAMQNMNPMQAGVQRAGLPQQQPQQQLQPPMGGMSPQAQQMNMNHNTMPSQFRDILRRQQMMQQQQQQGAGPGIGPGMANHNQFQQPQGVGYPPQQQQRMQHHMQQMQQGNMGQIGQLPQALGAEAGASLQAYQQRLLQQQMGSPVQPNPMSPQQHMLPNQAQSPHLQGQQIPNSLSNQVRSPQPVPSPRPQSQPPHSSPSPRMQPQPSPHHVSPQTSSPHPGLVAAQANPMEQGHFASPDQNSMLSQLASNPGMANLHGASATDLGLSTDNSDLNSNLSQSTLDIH

SMILES: COc1ccc(/C(Cl)=C(/C=O)c2ccc(OC)cc2)cc1 [WD, (Z) 3-chloro-2,3-bis(4-methoxyphenyl)acrylaldehyde]
- IC50: 4.2 µM

Reference: article PMC3923627 (Cell reports, 2013)
